Source: ChEMBL document CHEMBL4813931, “Boesenmaxane Diterpenoids from Boesenbergia maxwellii” (J Nat Prod, 2021)
Activity calls are given as the source filed them. No cut-off for these calls is given here.

Key:
P388 = assay: Cytotoxicity against mouse P388 cells measured after 48 hrs by SRB assay; format: functional, cell-based
HEK293 = assay: Cytotoxicity against human HEK293 cells measured after 48 hrs by SRB assay; format: cell-based; details: hek293, 48 h
[1] = Selectivity index, ratio of IC50 for human 1A2 cells to EC50 for Human calicivirus strain MC99 infected in human 1A2 cells; format: toxicity, cell-based; details: read-out: Ratio IC50/EC50
T-24 = assay: Cytotoxicity against human T-24 cells measured after 48 hrs by SRB assay; format: functional, cell-based
KB = assay: Cytotoxicity against human KB cells measured after 48 hrs by SRB assay; format: functional, cell-based
HT-29 = assay: Cytotoxicity against human HT-29 cells measured after 48 hrs by SRB assay; format: functional, cell-based
Enterococcus faecalis = assay: Antibacterial activity against Enterococcus faecalis assessed as bacterial growth inhibition measured after 16 to 18 hrs by Kirby-Bauer disk diffusion method; format: functional, organism-based; details: time 16-18 hrs
A549 = assay: Cytotoxicity against human A549 cells measured after 48 hrs by SRB assay; format: functional, cell-based
Staphylococcus aureus = assay: Antibacterial activity against Staphylococcus aureus assessed as bacterial growth inhibition measured after 16 to 18 hrs by Kirby-Bauer disk diffusion method; format: functional, organism-based; details: time 16-18 hrs
Candida albicans = assay: Antifungal activity against Candida albicans assessed as fungal growth inhibition measured after 16 to 18 hrs by Kirby-Bauer disk diffusion method; format: functional, organism-based; details: time 16-18 hrs
Escherichia coli = assay: Antibacterial activity against Escherichia coli assessed as bacterial growth inhibition measured after 16 to 18 hrs by Kirby-Bauer disk diffusion method; format: functional, organism-based; details: time 16-18 hrs
ASK = assay: Cytotoxicity against rat ASK cells measured after 48 hrs by SRB assay; format: functional, cell-based
[2] = Cytotoxicity against human 1A2 cells measured after 1 hr by XTT assay; format: cell-based; details: 1A2, 1 h
Bacillus cereus = assay: Antibacterial activity against Bacillus cereus assessed as bacterial growth inhibition measured after 16 to 18 hrs by Kirby-Bauer disk diffusion method; format: functional, organism-based; details: time 16-18 hrs
MCF7 = assay: Cytotoxicity against human MCF7 cells measured after 48 hrs by SRB assay; format: functional, cell-based
[3] = biological target: Human immunodeficiency virus type 1 reverse transcriptase (Human immunodeficiency virus 1) (UniProt Q72547); assay: Inhibition of HIV-1 reverse transcriptase using poly(rA)/oligo(dT)1 as template/primer incubated for 1 hr by pico-green reagent based fluorescence analysis

SMILES | Activity (P388) | Activity (HEK293) | selectivity ratio [1] | Activity (T-24) | Activity (KB) | Activity (HT-29) | inhibition (Enterococcus faecalis) | Activity (A549) | inhibition (Staphylococcus aureus) | inhibition (Candida albicans) | inhibition (Escherichia coli) | Activity (ASK) | IC50 [2] [µM] | inhibition (Bacillus cereus) | Activity (MCF7) | inhibition [3]
CC1(C)CCC[C@]2(C)C3=C(C[C@H](C4=CCOC4=O)C3)C(=O)C[C@@H]12 | inactive | Non-Toxic | > 7.2 | inactive | inactive | inactive | inactive | inactive | inactive | inactive | inactive | inactive | > 398 | inactive | inactive | inactive
CC1(C)C(=O)CC[C@]2(C)C3=C(C[C@H](C4=CCOC4=O)C3)C(=O)C[C@@H]12 | inactive | Non-Toxic |  | inactive | inactive | inactive | inactive | inactive | inactive | inactive | inactive | inactive |  | inactive | inactive | inactive
CC1(C)CCC[C@]2(C)[C@H]3C[C@@H](C4=CCOC4=O)CC3=CC[C@@H]12 | inactive | Non-Toxic |  | inactive | inactive | inactive | inactive | inactive | inactive | inactive | inactive | inactive | 381 | inactive | inactive | 
